Key:
[1] = tested on: pathogenic Th clones from SNF1 mice; assay: Stimulation of nucleosome-specific pathogenic Th clones from SNF1 mice by eluted/synthetic peptides; format: cell-based, mouse; settings: A20 or splenic B+Mφ as APC
Experimental: Fresh splenic, CD4^+ T cells (5×10^5/well) were co-cultured in triplicate wells at an initial concentration of 5×10^5 cells per well, with 10^6 cells per well of either irradiated B+Mφ or mitomycin-C treated A20 APC. Varying concentrations of either control or test peptides were added and the cultures were adjusted to 200 microliters final volume of HL-1 serum-free medium (Hycor Biomedical Inc., Irvine, Calif.) cultures were incubated for 96 hours in flat bottom 96-well plates, and at 18 hours prior to harvesting the cells, 1 microcurie of 3H-Thymidine was added to each well. The incorporated radioactivity was measured by scintillation counting. The Stimulation Index (SI) was calculated by dividing the mean counts per minute (cpm) incorporated in co-cultures of T cells and APC with test peptide by the mean cpm incorporated in control peptide co-cultures. In the case of cytokine assays, experiments were carried out as described for the proliferation assays except that the culture supernatants were removed from duplicate co-culture wells after 24-46 hours of incubation and cytokine assays were performed.
An aliquot of 50 microliters from each HPLC fraction was assayed for stimulating ability as described above. Four characterized Th clones were used as indicators of cytokine secretion (IL-2 and/or IL-4) in response to the peptide fractions, using A20 or splenic B+Mψ as APCs (Adams, et al., 1991, Proc. Natl. Acad. Sci. USA 88:11271-11275; Shi, et al., 1998, J. Exp. Med. 187:367-378). […] Only two out of one hundred fractions tested were able to stimulate Th cell clones. […] The latter was further separated as described, and tested for active fractions of HPLC purified peptides.. Three naturally processed and presented, stimulatory epitopes were identified using these procedures. The sequences of the peptides are as follows: SQKEEEEGAQREKE (EP-1, SEQ ID NO: 23); DWMEEEHGAQREKE (EP-2, SEQ ID NO: 24); and […] (EP-3, or H522-42, SEQ ID NO: 25). The first two peptides were homologous to sequences in a transcription factor, BRN-3, which is identical in chicken, mice and humans (GenBank). […] EP-1 is highly homologous to EP-2, but it also matched a sequence in cytomegalovirus envelope protein at aa position 57-70. Most likely these peptides are derived from some transcription factor in the chromatin that was incubated with the APC. The third sequence (EP-3) was derived from histone H5 (aa position 22-42) in chicken nucleosome, which is homologous to histone H1 sequence of mice and humans at amino acid position 22-42 ([…], SEQ ID NO:26). […] Therefore, the mouse H122-42 is the autoantigenic peptide in mice and is also referred to herein as EP-3. Nested sequences and unrelated sequences that were obtained in the active fractions from the eluates were also synthesized and re-tested.

SNF1 mice [2] = assay: Acceleration of SLE-associated nephritis by immunization with eluted peptides in adjuvant; format: in vivo, mouse; settings: for onset/rate of disease relative to control group (CFA alone or OVA peptide in CFA): immunization from 12 weeks
Description: The animals received three more injections at two weeks interval with 50 micrograms of either an eluted peptide or the control peptide absorbed on alum (Pierce Chemical Co., Rockford, Ill.).

SNF1 mice [3] = assay: Brief therapy with nucleosomal histone peptides (long-term experiments): incidence of severe nephritis; format: in vivo, mouse
Experimental: (§1) Long-term experiments used 12 week-old, autoimmune, but pre-nephritic SNF1 female mice. Nine mice per peptide test group were injected intravenously with either a saline (solution) or a peptide solution comprising saline and 300 micrograms of one of H2B10-33, H416-39, and H471-94. Each mouse received three subsequent injections of either the saline solution or one of the peptide solutions at two-week intervals. The mice were monitored weekly for proteinuria using an Albustix kit (VWR Scientific, Chicago, Ill.), and sacrificed upon the development of persistent proteinuria. Persistent protenuria was identified as an amount of protein in urine that is equivalent to or greater than 300 milligrams per deciliter, and is a primary indication of severe kidney disease and damage associated with nephritis. Sera were collected from each mouse and the IgG anti-nuclear autoantibodies determined. Blood urea nitrogen (BUN) was measured by Azostix (Miles, Ekhart, Ind.). Immune complex deposition and glomerulonephritis in the kidney were detected by staining with Hematoxylin and Eosin and anti-mouse Ig. These procedures were carried out as previously described (Mohan et al., 1993, J. Exp. Med. 177:1367; Mohan et al., 1995, J. Immunol. 154:1470; Eastcott et al., 1983, J. Immunol. 131:2232; Adams et al., 1991, Proc. Natl. Acad. Sci. USA 88:11271; Kalled et al., 1998, J. Immunol. 160:2158; Gaynor et al., 1997, Proc. Natl. Acad. Sci. USA 94:1955).

SNF1 mice [4] = assay: Short-term tolerance experiments: grading of lupus nephritis at sacrifice; format: in vivo, mouse; settings: short-term batch, at sacrifice two weeks after last injection
Experimental: Short-term experiments were conducted to test the early immunological consequences of tolerance therapy. Twelve week old SNF1 mice were injected once a week for four weeks with either a saline solution or a peptide solution comprising saline and 300 micrograms of one of the above described peptides. Mice were sacrificed at two weeks after the last injection. Presence of autoimmune T and B cells was analyzed and renal lesions were graded.

CD4+ T cells = assay: Helper assay: CD4+ T cells from peptide-injected mice co-cultured with B cells from unmanipulated SNF1 mice; format: cell-based, mouse
Description: (§2) Levels of IgG class autoantibodies specific for single-stranded DNA (ssDNA), double-stranded DNA (dsDNA), histones, and nucleosomes (i.e. histone-DNA complexes), in culture supernatants or serum, were estimated using an enzyme-linked immunosorbent assay (ELISA). Anti-DNA mAbs 564 and 205 were used to generate standard curves as previously described (Mohan et al., 1993, J. Exp. Med. 177:1367; Kaliyaperumal et al., 1996, J. Exp. Med. 183:2459; Mohan et al., 1995, J. Immunol. 154:1470; Adams et al., 1991, Proc. Natl. Acad. Sci. USA 88:11271). Sera were diluted 1:400 and heat-inactivated before use according to standard procedures. Sera from normal SWR mice were used as the negative control. Total polyclonal IgG levels were also measured by ELISA as previously described (Mohan et al., 1993, J. Exp. Med. 177:1367; Mohan et al., 1995, J. Immunol. 154:1470; Adams et al., 1991, Proc. Natl. Acad. Sci. USA 88:11271).
T-cells from peptide-treated mice used in the short-term experiments were co-cultured with splenic B cells from unmanipulated mice. Conversely, T cells from unmanipulated SNF1 mice (i.e. control mice) were co-cultured with splenic B cells from tolerized (i.e. peptide-injected) mice. Each of the cell types was seeded in 24-well plates at an initial concentration of 2.5×10^6 cells per well. Cultures were maintained for 7 days, as previously described (Datta et al., 1987, J. Exp. Med. 165:1252; Sainis and Datta, 1988, J. Immunol. 140:2215). B cells from unmanipulated or tolerized animals were cultured alone to measure baseline autoantibody production. Culture supernatants were collected, freeze-thawed, and assayed by ELISA for antibodies against ssDNA, dsDNA, histones and nucleosomes. For studies involving stimulation of B cells by soluble CD40 ligand, CD40L-CD8 fusion protein (Wortis et al., 1995, Proc. Natl. Acad. Sci. USA 92:3348) was added to either the co-culture wells or the wells with B cells alone and maintained in the medium for the entire 7-day culture period.

SNF1 mice [5] = assay: IgG anti-nuclear autoantibody and total IgG levels in sera of peptide-injected mice (ELISA); format: in vivo, mouse; settings: sera 1:400
Experimental: as §1, §2

SNF1 mice [6] = assay: Chronic therapy of established glomerulonephritis with nucleosomal peptides; format: in vivo, mouse
Experimental: Six mice per group were injected intraperitoneally once each month with either a saline solution or a peptide solution comprising saline and 300 micrograms of one of the identified peptides. The endpoint of these experiments was the development of moribund state due to renal failure.

CD4+ T cell clone DD2 = assay: IL-2 production by lupus Th cell clone DD2 in response to histone peptides; format: cell-based, human; settings: for stimulation of DD2: autologous EBV-B cells pulsed with peptide as APC
Experimental: Short-term T cell lines were rapidly thawed from liquid nitrogen and expanded in the presence of plate-bound anti-CD3 mAb, anti-CD28 mAb, and rIL-2 (20 units per milliliter). The expanded cells were transferred to fresh culture wells and rested by incubating in fresh medium for 10 to 14 days. For stimulation assays, 96 well plates were coated with 2 micrograms per milliliter of goat anti-mouse IgG antibodies overnight at 37° C. After washing the plates twice with Dulbecco's phosphate-buffered saline (dPBS), autologous and previously irradiated (3,000 rad) EBV-B cells (APC) were first added to each well at a concentration of 1×10^5 cells per well. The cells (APC) were cultured together with either a core histone peptide or a control peptide for 6 hours in HL-1 serum free medium (Bio Whittaker, Maryland). This procedure was followed by the addition to each well of CD4^+ T cells from the short-term lines at a concentration of 1×10^5 cells per well, and the addition of 0.5 micrograms per milliliter of a mouse monoclonal antibody (mAb) to human CD28. The final volume of the cultures was 200 microliters per well. Cells were co-cultured for 24 hours at 37° C. One-half the volume of supernatant was collected from each well for ELISA analysis of interleukin levels. Fresh medium (100 microliters) was added to cells, and the cells were incubated an additional 48 hours. [^3H] thymidine was added, and the cultures were incubated an additional 18 hours. Incorporated radioactivity was measured to quantitate T cell proliferation as described previously (Desai-Mehta et al., 1995, J. Clin. Invest. 95:53 1-541). HLA class II dependence of antigen-specific responses by the CD4^+ T cells was determined by adding to the co-cultures a blocking antibody from a panel of mAb to HLA class II molecules, as described previously (Desai-Mehta et al., 1995, J. Clin. Invest. 95:53 1-541). […]
IL-2 secreted by CD4^+ T cells in short term experiments was measured using an ELISA. […]

[7] = tested on: short-term CD4+ T cell lines; assay: IL-2 production by short-term CD4+ T cell lines in response to histone peptides (pepscan); format: cell-based, human
Experimental: Short-term T cell lines were rapidly thawed from liquid nitrogen and expanded in the presence of plate-bound anti-CD3 mAb, anti-CD28 mAb, and rIL-2 (20 units per milliliter). The expanded cells were transferred to fresh culture wells and rested by incubating in fresh medium for 10 to 14 days. For stimulation assays, 96 well plates were coated with 2 micrograms per milliliter of goat anti-mouse IgG antibodies overnight at 37° C. After washing the plates twice with Dulbecco's phosphate-buffered saline (dPBS), autologous and previously irradiated (3,000 rad) EBV-B cells (APC) were first added to each well at a concentration of 1×10^5 cells per well. The cells (APC) were cultured together with either a core histone peptide or a control peptide for 6 hours in HL-1 serum free medium (Bio Whittaker, Maryland). This procedure was followed by the addition to each well of CD4^+ T cells from the short-term lines at a concentration of 1×10^5 cells per well, and the addition of 0.5 micrograms per milliliter of a mouse monoclonal antibody (mAb) to human CD28. The final volume of the cultures was 200 microliters per well. Cells were co-cultured for 24 hours at 37° C. One-half the volume of supernatant was collected from each well for ELISA analysis of interleukin levels. Fresh medium (100 microliters) was added to cells, and the cells were incubated an additional 48 hours. [^3H] thymidine was added, and the cultures were incubated an additional 18 hours. Incorporated radioactivity was measured to quantitate T cell proliferation as described previously (Desai-Mehta et al., 1995, J. Clin. Invest. 95:53 1-541). HLA class II dependence of antigen-specific responses by the CD4^+ T cells was determined by adding to the co-cultures a blocking antibody from a panel of mAb to HLA class II molecules, as described previously (Desai-Mehta et al., 1995, J. Clin. Invest. 95:53 1-541).
IL-2 secreted by CD4^+ T cells in short term experiments was measured using an ELISA. Capture and biotinylated antibody pairs directed at human IL-2 and standards for use therein were purchased from PharMingen. […]

## DWMEEEHGAQREKE (DWMEEEEGAQREKE; Histone fragment) [EP-2]
[1]
  stimulation of pathogenic Th clones: stimulatory
SNF1 mice [2]; by 20 weeks of age
  mice developed disease: 60%
SNF1 mice [2]
  onset/rate of disease relative to control group (CFA alone or OVA peptide in CFA): developed severe nephritis earlier

## H2B10-33: histone 2B protein (H2B) amino acids 10-33
SNF1 mice [3]; at 28 weeks of age, 300 micrograms i.v., four injections at two-week intervals from 12 weeks
  incidence of severe nephritis: did not develop disease
SNF1 mice [3]; at 36-38 weeks of age, control 88.8%
  incidence of severe nephritis: 33.3%
SNF1 mice [4]
  Percent Incidence, Grading of Lupus Nephritis 1+: 66.6
  Percent Incidence, Grading of Lupus Nephritis 2+: 33.3
CD4+ T cells; T cells from treated mice + B cells from unmanipulated mice
  reduction of anti-ssDNA antibody production relative to control group: approximately 55%
CD4+ T cells; T cells from treated mice + B cells from unmanipulated mice, 7 days
  decrease in anti-dsDNA antibody production relative to control group: five fold decrease
CD4+ T cells; rIL-2 added at beginning of 7-day culture
  increase in help for anti-dsDNA antibody production following addition of rIL-2: did not exhibit any increase
SNF1 mice [5]; at 36 weeks of age, control 26±3.2
  serum anti-dsDNA antibody level: 14.0±3.2 units
SNF1 mice [5]; at the start of treatment (12 weeks), control 5.5±0.3
  serum anti-dsDNA antibody level: 7.7±0.9 units
SNF1 mice [6]; by 26 months age
  survival: only one mouse in the H2B10-33 group survived
SNF1 mice [6]; two months after start of treatment (all controls dead), 300 micrograms i.p. monthly, 18-month old mice
  mice alive: 66.6%

## H355-69: 15-mer nucleosomal histone H3 peptide, positions 55-69 (QKSTELLIRKLPFQR; UniProt P68431 56-70, looked up, fragment)
CD4+ T cell clone DD2
  stimulation of DD2: stimulated DD2 very weakly

## H383-97: H3 peptide used as additional background control, partly within a stimulatory region in H3 (RFQSSAVMALQEACE; UniProt P68431 84-98, looked up, fragment)
CD4+ T cell clone DD2
  stimulation of DD2: not recognized by any of the T-cell lines or clone DD2
[7]; short-term lines from 10 lupus patients
  recognition by / response of lupus T cell lines: not recognized by any of the T-cell lines or clone DD2

## H416-30: 15-mer histone H4 peptide, positions 16-30
[7]; average of 10 lupus T cell lines, baseline 22%
  IL-2 production response, percentage of maximal response stimulated by anti-CD3 mAb: 23±2.6%

## H449-63: histone peptide of H4, positions 49-63 (LIYEETRGVLKVFLE)
[7]; short-term T cell line L-EB, autologous EBV-B cells, blocking mAb
  HLA class II dependence of peptide presentation: inhibited mainly by anti-DR mAb

## SQKEEEEGAQREKE (Histone fragment) [EP-1]
[1]
  stimulation of pathogenic Th clones: stimulatory
SNF1 mice [2]
  onset/rate of disease relative to control group (CFA alone or OVA peptide in CFA): did not result in any increase in the rate of disease

## anti-CD3: Anti-CD3 antibody (mAb) produced by hybridoma OKT3, positive control stimulus [reference compound]
CD4+ T cell clone DD2; background with APC without peptide 132
  IL-2 production by T cell clone DD2: 554 picograms per milliliter
